Literature values as cited in US20150082465A1, “System and Method for Whole-Animal High-Throughput Compound Screening” (System959, LLC, priority 2013, published 2015).

Test system: C. elegans
Conditions: by antagonizing egl-19, an L-type calcium channel

In the case of `CCOC(=O)C1=C(C)NC(C)=C(C(=O)OCC)C1c1c(F)c(F)c(F)c(F)c1F` [Nemadipine], the “growth of C. elegans” value is listed as “inhibit the growth”.
